Assay results from ChEMBL document CHEMBL5390312, “Discovery of Tumor-Targeted 6-Methyl Substituted Pemetrexed and Related Antifolates with Selective Loss of RFC Transport” (ACS Med Chem Lett, 2023).
pIC50: −log10 of the molar value. Activity calls are given as the source filed them. The calls are words filed in the database; no cut-off is given here.

Columns and labels:
Assay type in all cases: functional, cell-based
KB [1] = assay: Antiproliferative activity against human KB cells assessed as inhibition of cell growth upto 1000 nM incubated for 96 hrs in the presence of adenosine by CellTiter-Blue cell viability assay
KB [2] = assay: Antiproliferative activity against human KB cells assessed as inhibition of cell growth upto 1000 nM incubated for 96 hrs in the presence of AICA by CellTiter-Blue cell viability assay
[3] = Antiproliferative activity against chinese hamster R2 cells assessed as inhibition of cell growth incubated for 96 h by CellTiter-Blue cell viability assay; details: Cricetulus griseus, R2, 96 h
KB [4] = assay: Antiproliferative activity against human KB cells assessed as inhibition of cell growth upto 1000 nM incubated for 96 hrs in the presence of thymidine by CellTiter-Blue cell viability assay
KB [5] = assay: Antiproliferative activity against human KB cells assessed as inhibition of cell growth upto 1000 nM incubated for 96 hrs in the presence of thymidylate by CellTiter-Blue cell viability assay
KB [6] = assay: Antiproliferative activity against human KB cells assessed as inhibition of cell growth upto 1000 nM incubated for 96 hrs in the presence of glycine by CellTiter-Blue cell viability assay

Structure (SMILES) | Activity (KB [1]) | Activity (KB [2]) | pIC50 [3] | Activity (KB [4]) | Activity (KB [5]) | Activity (KB [6])
Cc1[nH]c2nc(N)[nH]c(=O)c2c1CCCc1ccc(C(=O)N[C@@H](CCC(=O)O)C(=O)O)cc1 | inactive | inactive | < 6.00 | – | – | –
Nc1nc2[nH]cc(CCc3ccc(C(=O)N[C@@H](CCC(=O)O)C(=O)O)c(F)c3)c2c(=O)[nH]1 | inactive | inactive | < 6.00 | inactive | Active | –
Cc1[nH]c2nc(N)[nH]c(=O)c2c1CCc1ccc(C(=O)N[C@@H](CCC(=O)O)C(=O)O)c(F)c1 | inactive | inactive | < 6.00 | – | – | –
Cc1[nH]c2nc(N)[nH]c(=O)c2c1CCc1ccc(C(=O)N[C@@H](CCC(=O)O)C(=O)O)cc1 | inactive | inactive | < 6.00 | – | – | –
Nc1nc2[nH]cc(CCc3ccc(C(=O)N[C@@H](CCC(=O)O)C(=O)O)s3)c2c(=O)[nH]1 | – | – | < 6.00 | – | – | –
Cc1[nH]c2nc(N)[nH]c(=O)c2c1CCc1ccc(C(=O)N[C@@H](CCC(=O)O)C(=O)O)s1 | inactive | inactive | < 6.00 | – | – | –
Nc1nc2[nH]cc(CCCc3ccc(C(=O)N[C@@H](CCC(=O)O)C(=O)O)cc3)c2c(=O)[nH]1 | inactive | inactive | < 6.00 | inactive | Active | inactive
Nc1nc2[nH]cc(CCc3ccc(C(=O)N[C@@H](CCC(=O)O)C(=O)O)cc3)c2c(=O)[nH]1 [PEMETREXED] | inactive | inactive | < 6.00 | inactive | Active | –
